From the Kinase Knowledgebase extract (Sharma et al. 2016)

Tests used:
MAPK14 (human) [1] = biological target: MAPK14 (human) (UniProt Q16539); assay: Inhibition of LPS Stimulated TNF Production by U937 Cells; conditions: for inhibition: concentration not given here
MAPK14 (human) [2] = biological target: MAPK14 (human) (UniProt Q16539); assay: Inhibition of MAPK14 Kinase Activity by PHAS-I Assay; conditions: for inhibition: concentration not given here

Sequence of MAPK14 (human) (Q16539 whole entry, looked up): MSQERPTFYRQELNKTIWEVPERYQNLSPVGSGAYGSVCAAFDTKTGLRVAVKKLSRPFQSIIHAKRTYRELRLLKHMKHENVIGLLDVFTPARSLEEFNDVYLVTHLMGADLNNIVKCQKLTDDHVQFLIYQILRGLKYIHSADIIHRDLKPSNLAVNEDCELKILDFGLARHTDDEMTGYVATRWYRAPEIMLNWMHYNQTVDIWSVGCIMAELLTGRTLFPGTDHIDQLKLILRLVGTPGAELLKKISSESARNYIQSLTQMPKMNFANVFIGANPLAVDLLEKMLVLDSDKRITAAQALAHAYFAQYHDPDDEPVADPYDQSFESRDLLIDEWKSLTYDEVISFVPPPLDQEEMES

| SMILES | inhibition (MAPK14 (human) [1]) [%] | inhibition (MAPK14 (human) [2]) [%] | other results |
| --- | --- | --- | --- |
| O=C(NCc1[nH]nc(-c2ccc(F)cc2)c1-c1ccncc1)c1ccc(OC(F)(F)F)cc1 | 45 | 69 |  |
| O=C(NCCCc1[nH]nc(-c2ccc(F)cc2)c1-c1ccncc1)c1ccccc1C(F)(F)F | 62 | 65 |  |
| COC(=O)C(=O)NCc1[nH]nc(-c2ccc(F)cc2)c1-c1ccncc1 | 79 | 89 |  |
| O=S(=O)(NCc1[nH]nc(-c2ccc(F)cc2)c1-c1ccncc1)C(F)(F)F |  |  | IC50 (MAPK14 (human) [1]): > 1000 nM; IC50 (MAPK14 (human) [2]): 2400 nM |
| O=C(NCCCc1[nH]nc(-c2ccc(F)cc2)c1-c1ccncc1)[C@@H]1CCCN1 |  | 85 | IC100 (MAPK14 (human) [1]): 0.36 µM |
| CN(C(=O)NCc1[nH]nc(-c2ccc(F)cc2)c1-c1ccncc1)c1ccccc1 | 18 |  | IC50 (MAPK14 (human) [2]): 530 nM |
| O=S(=O)(/C=C/c1ccccc1)NCCCc1[nH]nc(-c2ccc(F)cc2)c1-c1ccncc1 | 65 | 69 |  |
| CCOC(=O)c1ccc(NC(=O)NCCc2[nH]nc(-c3ccc(F)cc3)c2-c2ccncc2)cc1 | 17 | 90 |  |
| O=C(NCCc1[nH]nc(-c2ccc(F)cc2)c1-c1ccncc1)c1ccc(I)cc1 | 33 | 58 |  |
| COc1ccc(NC(=O)N2CCC(c3[nH]nc(-c4ccc(F)cc4)c3-c3ccncc3)CC2)c(OC)c1 |  |  | IC50 (MAPK14 (human) [1]): 440 nM; IC50 (MAPK14 (human) [2]): < 100 nM |
| COc1ccc(CC(=O)NCCCc2[nH]nc(-c3ccc(F)cc3)c2-c2ccncc2)cc1OC | 67 | 67 |  |
| O=C(NCCCc1[nH]nc(-c2ccc(F)cc2)c1-c1ccncc1)NCCN1CCOCC1 | 20 |  | IC50 (MAPK14 (human) [2]): 55 nM |
| CCNC(=O)NCCc1[nH]nc(-c2ccc(F)cc2)c1-c1ccncc1 | 65 | 67 |  |
| O=C(NCCc1[nH]nc(-c2ccc(F)cc2)c1-c1ccncc1)c1ccc(F)c(F)c1F | 22 | 69 |  |
| C[C@H](NS(=O)(=O)C[C@@]12CC[C@H](CC1=O)C2(C)C)c1[nH]nc(-c2ccc(F)cc2)c1-c1ccncc1 | 60 |  | IC50 (MAPK14 (human) [2]): 160 nM |
| CCOC(=O)NC(=O)NCCc1[nH]nc(-c2ccc(F)cc2)c1-c1ccncc1 | 22 | 56 |  |
| O=C(NCCCc1[nH]nc(-c2ccc(F)cc2)c1-c1ccncc1)NCCc1cccnc1 | 18 |  | IC50 (MAPK14 (human) [2]): 71 nM |
| O=C(NCc1[nH]nc(-c2ccc(F)cc2)c1-c1ccncc1)N1CCOCC1 |  |  | IC50 (MAPK14 (human) [1]): > 1000 nM; IC50 (MAPK14 (human) [2]): 560 nM |
| Cc1c(-c2ccncc2)c(-c2ccc(F)cc2)nn1CC(=O)Nc1ccccc1Sc1ccc([N+](=O)[O-])cn1 | 18 | 90 |  |

| SMILES | inhibition (MAPK14 (human) [1]) [%] | inhibition (MAPK14 (human) [2]) [%] | other results |
| --- | --- | --- | --- |
| Cc1c(-c2ccncc2)c(-c2ccc(F)cc2)nn1CC(=O)N[C@@H](C)C1CCCCC1 | 38 | 64 |  |
| O=C(Cc1cccs1)NCCc1[nH]nc(-c2ccc(F)cc2)c1-c1ccncc1 | 41 | 68 |  |
| N#Cc1ccc(S(=O)(=O)NCCCc2[nH]nc(-c3ccc(F)cc3)c2-c2ccncc2)cc1 | 75 |  | IC50 (MAPK14 (human) [2]): < 100 nM |
| O=C(NCCc1[nH]nc(-c2ccc(F)cc2)c1-c1ccncc1)N1CCOCC1 | 34 | 86 |  |
| O=C(NCCc1[nH]nc(-c2ccc(F)cc2)c1-c1ccncc1)Nc1ccc(Oc2ccccc2)cc1 | 24 | 63 |  |
| Cc1ccc(S(=O)(=O)N[C@@H](Cc2ccccc2)C(=O)NCCc2[nH]nc(-c3ccc(F)cc3)c2-c2ccncc2)cc1 | 17 | 72 |  |
| O=S(=O)(NCCc1[nH]nc(-c2ccc(F)cc2)c1-c1ccncc1)c1cccs1 | 53 | 87 |  |
| O=C(NCCc1[nH]nc(-c2ccc(F)cc2)c1-c1ccncc1)Nc1cccc2ccccc12 | 39 | 83 |  |
| Cc1c(-c2ccncc2)c(-c2ccc(F)cc2)nn1CC(=O)Nc1ccccc1OC(F)(F)F |  | 91 | IC50 (MAPK14 (human) [1]): > 10000 nM |
| COc1cccc(C(=O)N[C@@H](C)c2[nH]nc(-c3ccc(F)cc3)c2-c2ccncc2)c1 |  |  | IC50 (MAPK14 (human) [2]): 1370 nM |
| Cc1c(-c2ccncc2)c(-c2ccc(F)cc2)nn1CC(=O)N(Cc1ccco1)CC(C)C |  | 48 |  |
| O=C(Nc1ccccc1)N[C@@H](Cc1ccccc1)c1[nH]nc(-c2ccc(F)cc2)c1-c1ccncc1 |  |  | IC50 (MAPK14 (human) [2]): 2600 nM |
| CCOC(=O)CC(C)NC(=O)Cn1nc(-c2ccc(F)cc2)c(-c2ccncc2)c1C (stereo not drawn) |  | 43 |  |
| COC(=O)[C@@H](Cc1cn(C)cn1)NC(=O)Cn1nc(-c2ccc(F)cc2)c(-c2ccncc2)c1C |  | 19 |  |
| Cc1c(-c2ccncc2)c(-c2ccc(F)cc2)nn1CC(=O)Nc1cccc(F)c1 |  | 92 |  |
| Cc1c(-c2ccncc2)c(-c2ccc(F)cc2)nn1CC(=O)Nc1ccccc1SCCCc1ccccc1 |  | 80 |  |
| Cc1c(-c2ccncc2)c(-c2ccc(F)cc2)nn1CC(=O)Nc1ccccc1C(C)(C)C |  | 84 |  |
| Cc1c(-c2ccncc2)c(-c2ccc(F)cc2)nn1CC(=O)NC1CCCc2ccccc21 (stereo not drawn) |  | 76 |  |
| N#CCNc1[nH]nc(-c2ccc(F)cc2)c1-c1ccncc1 |  |  | IC50 (MAPK14 (human) [2]): 17 nM |

More lines, main results first:

| inhibition (MAPK14 (human) [1]) [%] | inhibition (MAPK14 (human) [2]) [%] | SMILES | other results |
| --- | --- | --- | --- |
| 1 | 77 | CCOC(=O)[C@H](Cc1ccccc1)NC(=O)Cn1nc(-c2ccc(F)cc2)c(-c2ccncc2)c1C |  |
| 22 | 79 | CCc1ccccc1NC(=O)NCCc1[nH]nc(-c2ccc(F)cc2)c1-c1ccncc1 |  |
| 27 | 54 | O=C(NCCc1[nH]nc(-c2ccc(F)cc2)c1-c1ccncc1)c1ccccc1C(F)(F)F |  |
|  | 74 | CCOC(=O)CNC(=O)NCCc1[nH]nc(-c2ccc(F)cc2)c1-c1ccncc1 | IC50 (MAPK14 (human) [1]): 1100 nM |
| 52 | 96 | O=C(NCc1[nH]nc(-c2ccc(F)cc2)c1-c1ccncc1)[C@@H]1CCCN1C(=O)C(F)(F)F |  |
| 13 | 42 | CCCCOc1ccc(NC(=O)NCc2[nH]nc(-c3ccc(F)cc3)c2-c2ccncc2)cc1 |  |
| 15 | 94 | Cc1c(-c2ccncc2)c(-c2ccc(F)cc2)nn1CC(=O)Nc1ccc(CCC(=O)c2cccnc2)cc1 |  |
| 76 |  | C[C@H](NS(=O)(=O)c1cc(Cl)cc(Cl)c1O)c1[nH]nc(-c2ccc(F)cc2)c1-c1ccncc1 | IC50 (MAPK14 (human) [2]): 170 nM |
| 14 | 53 | COc1ccccc1C(=O)NCCc1[nH]nc(-c2ccc(F)cc2)c1-c1ccncc1 |  |
| 9 | 65 | C[C@@H](NC(=O)NCCCc1[nH]nc(-c2ccc(F)cc2)c1-c1ccncc1)c1ccccc1 |  |
| 1 |  | CC1(C)[C@@H]2CC[C@]1(CCS(=O)(=O)NCc1[nH]nc(-c3ccc(F)cc3)c1-c1ccncc1)C(=O)C2 | IC50 (MAPK14 (human) [2]): 45 nM |
| 34 | 52 | O=C(NCCc1[nH]nc(-c2ccc(F)cc2)c1-c1ccncc1)c1ccccn1 |  |
| 21 | 44 | O=C(NCCc1[nH]nc(-c2ccc(F)cc2)c1-c1ccncc1)Nc1cc(Cl)cc(Cl)c1 |  |
| 11 |  | CC1(C)[C@H]2CC[C@@]1(CCS(=O)(=O)NCc1[nH]nc(-c3ccc(F)cc3)c1-c1ccncc1)C(=O)C2 | IC50 (MAPK14 (human) [2]): < 100 nM |
|  | 76 | COc1ccc(OC)c(NC(=O)NCCc2[nH]nc(-c3ccc(F)cc3)c2-c2ccncc2)c1 | IC50 (MAPK14 (human) [1]): 880 nM |
| 25 | 73 | Cc1c(-c2ccncc2)c(-c2ccc(F)cc2)nn1CC(=O)NC1CCc2ccccc21 (stereo not drawn) |  |
| 29 | 80 | CC(C)c1ccccc1NC(=O)NCCc1[nH]nc(-c2ccc(F)cc2)c1-c1ccncc1 |  |
| 34 |  | O=C(N[C@H](Cc1ccccc1)c1[nH]nc(-c2ccc(F)cc2)c1-c1ccncc1)c1ccccc1I | IC50 (MAPK14 (human) [2]): 540 nM |
| 6 | 50 | C=CCN(C(=O)Cn1nc(-c2ccc(F)cc2)c(-c2ccncc2)c1C)C1CCCCC1 |  |
|  | 97 | C=CCOC(=O)NCc1[nH]nc(-c2ccc(F)cc2)c1-c1ccncc1 | IC50 (MAPK14 (human) [1]): 10000 nM |

| inhibition (MAPK14 (human) [1]) [%] | inhibition (MAPK14 (human) [2]) [%] | SMILES | other results |
| --- | --- | --- | --- |
|  | 94 | CCCCCSc1cccc(NC(=O)Cn2nc(-c3ccc(F)cc3)c(-c3ccncc3)c2C)c1 | IC50 (MAPK14 (human) [1]): > 10000 nM |
| 9 | 67 | C=Cc1ccc(S(=O)(=O)NCc2[nH]nc(-c3ccc(F)cc3)c2-c2ccncc2)cc1 |  |
| 86 |  | COc1ccc(Br)cc1S(=O)(=O)N[C@H](C)c1[nH]nc(-c2ccc(F)cc2)c1-c1ccncc1 | IC50 (MAPK14 (human) [2]): 24 nM |
| 66 | 69 | CC(C)(C)C(=O)NCCc1[nH]nc(-c2ccc(F)cc2)c1-c1ccncc1 |  |
| 31 | 63 | COc1cccc(CC(=O)NCCc2[nH]nc(-c3ccc(F)cc3)c2-c2ccncc2)c1 |  |
| 22 | 83 | Cc1c(-c2ccncc2)c(-c2ccc(F)cc2)nn1CC(=O)N(CC1CC1)C(C)Cc1ccc(Cl)cc1 (stereo not drawn) |  |
| 31 | 68 | O=C(NCCc1[nH]nc(-c2ccc(F)cc2)c1-c1ccncc1)Nc1cccc(Cl)c1Cl |  |
|  | 84 | O=S(=O)(NCCCc1[nH]nc(-c2ccc(F)cc2)c1-c1ccncc1)c1cccs1 |  |
|  | 58 | Cc1c(-c2ccncc2)c(-c2ccc(F)cc2)nn1CC(=O)N(CCC#N)CC1CCCO1 (stereo not drawn) |  |
|  | 92 | CCCS(=O)(=O)NCCCc1[nH]nc(-c2ccc(F)cc2)c1-c1ccncc1 |  |
|  | 82 | COc1ccc(NC(=O)NCCCc2[nH]nc(-c3ccc(F)cc3)c2-c2ccncc2)cc1 |  |
|  | 73 | O=C(NCc1[nH]nc(-c2ccc(F)cc2)c1-c1ccncc1)c1cc(Cl)ccc1F |  |
|  | 35 | COCCN(C)C(=O)Cn1nc(-c2ccc(F)cc2)c(-c2ccncc2)c1C |  |
|  | 87 | O=S(=O)(Cc1ccccc1)NCCCc1[nH]nc(-c2ccc(F)cc2)c1-c1ccncc1 |  |
|  | 75 | Cc1c(-c2ccncc2)c(-c2ccc(F)cc2)nn1CC(=O)NC1CC1 |  |
|  | 84 | Cc1c(-c2ccncc2)c(-c2ccc(F)cc2)nn1CC(=O)NC1CCN(CCc2c[nH]c3ccccc23)CC1 |  |
|  | 56 | Cc1cccc(C)c1NC(=O)NCCc1[nH]nc(-c2ccc(F)cc2)c1-c1ccncc1 |  |
|  | 60 | Cc1c(-c2ccncc2)c(-c2ccc(F)cc2)nn1CC(=O)N(C)CC(N)=O |  |
|  | 88 | CCCNC(=O)NCCCc1[nH]nc(-c2ccc(F)cc2)c1-c1ccncc1 |  |
|  | 86 | Cc1c(-c2ccncc2)c(-c2ccc(F)cc2)nn1CC(=O)NCC(=O)Nc1ccccc1 |  |
